# Activity calls are given as the source filed them. No cut-off for these calls is given here.
# Columns and labels:
# [1] = Antioxidant activity assessed as DPPH radical scavenging activity after 30 mins by ELISA reader analysis; format: physicochemical
# [2] = Antioxidant activity assessed as ABTS radical scavenging activity after 6 mins by photometric analysis; format: physicochemical
# HepG2 = assay: cells; conditions: Homo sapiens, HepG2, 48 h
# [3] = Cytotoxicity against mouse BNL-CL2 cells after 48 hrs by MTT assay; format: cell-based; conditions: BNL CL.2, 48 h
# HT-29 [4] = assay: cells; conditions: Homo sapiens, HT-29, 48 h
# Description: Antiproliferative activity against human HT-29 cells after 48 hrs by MTT assay
# [5] = Antiproliferative activity against human DLD1 cells after 48 hrs by MTT assay; format: functional, cell-based; conditions: DLD-1, 48 h
# SW480 [6] = assay: Antiproliferative activity against human SW480 cells after 48 hrs by MTT assay; format: functional, cell-based; conditions: SW480, 48 h
# SW480 [7] = assay: Cell cycle arrest in human SW480 cells assessed as accumulation at G2/M phase at 5 uM after 48 hrs by propidium iodide staining-based flow cytometric analysis (reference value: 8.57%); format: functional
# SW480 [8] = assay: Cell cycle arrest in human SW480 cells assessed as accumulation at G1 phase at 20 uM after 48 hrs by propidium iodide staining-based flow cytometric analysis (reference value: 65.24%); format: functional
# SW480 [9] = assay: Cell cycle arrest in human SW480 cells assessed as accumulation at S phase at 20 uM after 48 hrs by propidium iodide staining-based flow cytometric analysis (reference value: 26.19%); format: functional
# SW480 [10] = assay: Induction of ROS generation in human SW480 cells after 48 hrs by DHE staining-based fluorescence assay; format: functional, cell-based
# SW480 [11] = assay: Induction of ROS generation in human SW480 cells assessed as superoxide anion level at 10 uM after 48 hrs by DHE staining-based fluorescence assay (reference value: 101.21 No_Unit); format: functional
# SW480 [12] = assay: Cell cycle arrest in human SW480 cells assessed as accumulation at G1 phase at 10 uM after 48 hrs by propidium iodide staining-based flow cytometric analysis (reference value: 65.24%); format: functional
# SW480 [13] = assay: Induction of apoptosis in human SW480 cells assessed as early apoptotic cells after 48 hrs by annexin V-FITC/propidium iodide staining-based flow cytometric analysis; format: functional, cell-based
# SW480 [14] = assay: Cell cycle arrest in human SW480 cells assessed as accumulation at S phase at 10 uM after 48 hrs by propidium iodide staining-based flow cytometric analysis (reference value: 26.19%); format: functional
# SW480 [15] = assay: Cell cycle arrest in human SW480 cells assessed as accumulation at G2/M phase at 20 uM after 48 hrs by propidium iodide staining-based flow cytometric analysis (reference value: 8.57%); format: functional
# SW480 [16] = assay: Antiproliferative activity against human SW480 cells after 72 hrs by MTT assay; format: functional, cell-based; conditions: SW480, 72 h
# SW480 [17] = assay: Cell cycle arrest in human SW480 cells assessed as accumulation at S phase at 5 uM after 48 hrs by propidium iodide staining-based flow cytometric analysis (reference value: 26.19%); format: functional
# [18] = Antiproliferative activity against human DLD1 cells after 24 hrs by MTT assay; format: functional, cell-based; conditions: DLD-1, 24 h
# SW480 [19] = assay: Induction of apoptosis in human SW480 cells assessed as late apoptotic cells at 10 uM after 48 hrs by annexin V-FITC/propidium iodide staining-based flow cytometric analysis; format: functional, cell-based
# SW480 [20] = assay: Induction of apoptosis in human SW480 cells assessed as DNA fragmentation at 20 uM after 48 hrs by Hoechst 33258 staining-based fluorescence microscopic analysis; format: functional, cell-based
# HT-29 [21] = assay: Antiproliferative activity against human HT-29 cells after 24 hrs by MTT assay; format: functional, cell-based; conditions: HT-29, 24 h
# [22] = Cytotoxicity against mouse BNL-CL2 cells assessed as induction of cell death at 20 uM after 48 hrs by MTT assay; format: cell-based; conditions: bnl-cl2, 48 h
# SW480 [23] = assay: Cell cycle arrest in human SW480 cells assessed as accumulation at G1 phase at 5 uM after 48 hrs by propidium iodide staining-based flow cytometric analysis (reference value: 65.24%); format: functional
# HT-29 [24] = assay: Antiproliferative activity against human HT-29 cells after 72 hrs by MTT assay; format: functional, cell-based; conditions: HT-29, 72 h
# SW480 [25] = assay: Induction of apoptosis in human SW480 cells assessed as nuclear shrinkage at 20 uM after 48 hrs by Hoechst 33258 staining-based fluorescence microscopic analysis; format: functional, cell-based
# SW480 [26] = assay: Induction of ROS generation in human SW480 cells assessed as superoxide anion level at 20 uM after 48 hrs by DHE staining-based fluorescence assay (reference value: 101.21 No_Unit); format: functional
# SW480 [27] = assay: Induction of apoptosis in human SW480 cells assessed as early apoptotic cells at 10 uM after 48 hrs by annexin V-FITC/propidium iodide staining-based flow cytometric analysis; format: functional, cell-based
# SW480 [28] = assay: Induction of apoptosis in human SW480 cells assessed as chromatin condensation at 20 uM after 48 hrs by Hoechst 33258 staining-based fluorescence microscopic analysis; format: functional, cell-based
# SW480 [29] = assay: Induction of ROS generation in human SW480 cells assessed as superoxide anion level at 5 uM after 48 hrs by DHE staining-based fluorescence assay (reference value: 101.21); format: functional
# SW480 [30] = assay: Antiproliferative activity against human SW480 cells after 24 hrs by MTT assay; format: functional, cell-based; conditions: SW480, 24 h
# SW480 [31] = assay: Cell cycle arrest in human SW480 cells assessed as accumulation at G2/M phase at 10 uM after 48 hrs by propidium iodide staining-based flow cytometric analysis (reference value: 8.57%); format: functional
# [32] = Antiproliferative activity against human DLD1 cells after 72 hrs by MTT assay; format: functional, cell-based; conditions: DLD-1, 72 h
# SW480 [33] = assay: Induction of apoptosis in human SW480 cells assessed as early apoptotic cells at 20 uM after 48 hrs by annexin V-FITC/propidium iodide staining-based flow cytometric analysis; format: functional, cell-based
# SW480 [34] = assay: Cell cycle arrest in human SW480 cells assessed as accumulation at S phase at 50 uM after 48 hrs by propidium iodide staining-based flow cytometric analysis; format: functional
# SW480 [35] = assay: Induction of apoptosis in human SW480 cells assessed as late apoptotic cells at 20 uM after 48 hrs by annexin V-FITC/propidium iodide staining-based flow cytometric analysis; format: functional, cell-based
smiles,measurement,setting,value
O=c1c(O)c(-c2ccc(O)c(O)c2)oc2cc(O)cc(O)c12 [QUERCETIN],IC50,[1],8.41 µM
same,IC50,[2],7.26 µM
COc1c(O)cc(O)c2c(=O)cc(-c3ccccc3)oc12 [WOGONIN],IC50,HepG2,37.9 µM
same,IC50,[3],> 40 µM
same,IC50,HT-29 [4],39.6 µM
same,IC50,[5],36.9 µM
same,IC50,SW480 [6],35.1 µM
CCCCOc1cc2oc(-c3ccccc3)cc(=O)c2c(O)c1O,IC50,[1],12.9 µM
same,IC50,HepG2,> 20 µM
same,IC50,[3],> 20 µM
same,IC50,[2],14 µM
same,IC50,HT-29 [4],19.5 µM
same,IC50,[5],> 20 µM
same,IC50,SW480 [6],> 20 µM
CC(C)=CCC/C(C)=C/COc1cc2oc(-c3ccccc3)cc(=O)c2c(O)c1O,IC50,[1],24.3 µM
same,IC50,HepG2,> 20 µM
same,IC50,[3],> 20 µM
same,IC50,[2],20.4 µM
same,IC50,HT-29 [4],17 µM
same,IC50,[5],9.77 µM
same,IC50,SW480 [6],2.84 µM
CC(C)=CCC/C(C)=C/CC/C(C)=C/COc1cc2oc(-c3ccccc3)cc(=O)c2c(O)c1O,Activity,SW480 [7],7.47%
same,Activity,SW480 [8],43.3%
same,Activity,SW480 [9],50%
same,Activity,SW480 [10],Dose-dependent effect
same,Flu intensity,SW480 [11],169.24
same,Activity,SW480 [12],57.2%
same,Activity,SW480 [13],Dose-dependent effect
same,IC50,[1],24.6 µM
same,Activity,SW480 [14],33.33%
same,IC50,HepG2,> 20 µM
same,Activity,SW480 [15],6.64%
same,IC50,SW480 [16],1.26 µM
same,IC50,[3],> 20 µM
same,Activity,SW480 [17],23.88%
same,IC50,[18],16.1 µM
same,Activity,SW480 [19],Active
same,Activity,SW480 [20],Active
same,IC50,HT-29 [21],> 20 µM
same,Activity,[22],< 20%
same,Activity,SW480 [23],68.64%
same,IC50,HT-29 [24],15.4 µM
same,Activity,SW480 [25],Active
same,IC50,[2],24 µM
same,IC50,HT-29 [4],14.9 µM
same,Flu intensity,SW480 [26],192.86
same,IC50,[5],4.88 µM
same,IC50,SW480 [6],1.15 µM
same,Activity,SW480 [27],Active
same,Activity,SW480 [28],Active
same,Flu intensity,SW480 [29],102.13
same,IC50,SW480 [30],> 20 µM
same,Activity,SW480 [31],9.41%
same,IC50,[32],6.86 µM
O=c1cc(-c2ccccc2)oc2cc(O)cc(O)c12 [CHRYSIN],IC50,HepG2,16.5 µM
same,IC50,[3],> 40 µM
same,IC50,HT-29 [4],19.5 µM
same,IC50,[5],18.6 µM
same,IC50,SW480 [6],31.1 µM
COc1cccc2c1C(=O)c1c(O)c3c(c(O)c1C2=O)C[C@@](O)(C(=O)CO)C[C@@H]3O[C@H]1C[C@H](N)[C@H](O)[C@H](C)O1 [DOXORUBICIN],IC50,SW480 [6],0.53 µM
COc1cc(O)c2c(=O)cc(-c3ccccc3)oc2c1 [TECHTOCHRYSIN],IC50,HepG2,> 20 µM
same,IC50,[3],> 20 µM
same,IC50,HT-29 [4],> 20 µM
same,IC50,[5],> 20 µM
same,IC50,SW480 [6],> 20 µM
Cc1c(C)c2c(c(C)c1O)CCC(C)(C(=O)O)O2 (stereo not drawn) [TROLOX],IC50,[1],22.7 µM
same,IC50,[2],16.8 µM
O=C1O[C@H]([C@@H](O)CO)C(O)=C1O [ASCORBIC ACID],IC50,[1],27.3 µM
same,IC50,[2],18.3 µM
CC(C)=CCOc1cc2oc(-c3ccccc3)cc(=O)c2c(O)c1O,IC50,[1],24 µM
same,IC50,HepG2,> 20 µM
same,IC50,[3],> 20 µM
same,IC50,[2],18.8 µM
same,IC50,HT-29 [4],> 20 µM
same,IC50,[5],> 20 µM
same,IC50,SW480 [6],8.6 µM
O=c1cc(-c2ccccc2)oc2cc(O)c(O)c(O)c12 [BAICALEIN],Activity,SW480 [7],7.75%
same,Activity,SW480 [8],64.54%
same,Activity,SW480 [9],27.51%
same,Activity,SW480 [10],Dose-dependent effect
same,Flu intensity,SW480 [11],99.49
same,Activity,SW480 [12],64.29%
same,Activity,SW480 [13],inactive
same,IC50,[1],17.2 µM
same,Activity,SW480 [33],Active
same,Activity,SW480 [34],Active
same,Activity,SW480 [14],28.65%
same,Activity,SW480 [15],7.95%
same,IC50,SW480 [16],11.6 µM
same,IC50,[3],> 40 µM
same,Activity,SW480 [17],28.61%
same,IC50,[18],> 20 µM
same,Activity,SW480 [20],Active
same,IC50,HT-29 [21],> 20 µM
same,Activity,SW480 [23],63.64%
same,Activity,SW480 [35],Active
same,IC50,HT-29 [24],18.4 µM
same,Activity,SW480 [25],Active
same,IC50,[2],15.5 µM
same,IC50,HT-29 [4],18.1 µM
same,Flu intensity,SW480 [26],98.79
same,IC50,[5],27.9 µM
same,IC50,SW480 [6],14.1 µM
same,Activity,SW480 [28],Active
same,Flu intensity,SW480 [29],104.84
same,IC50,SW480 [30],16.9 µM
same,Activity,SW480 [31],7.05%
same,IC50,[32],> 20 µM
CC(C)=CCC/C(C)=C/COc1cc(O)c2c(=O)cc(-c3ccccc3)oc2c1,IC50,HepG2,> 20 µM
same,IC50,[3],> 20 µM
same,IC50,HT-29 [4],> 20 µM
same,IC50,[5],> 20 µM
same,IC50,SW480 [6],> 20 µM
O=c1[nH]cc(F)c(=O)[nH]1 [FLUOROURACIL],IC50,HepG2,40.2 µM
same,IC50,HT-29 [4],> 100 µM
same,IC50,SW480 [6],32.7 µM
COc1cc2oc(-c3ccccc3)cc(=O)c2c(O)c1O,IC50,[1],28.4 µM
same,IC50,HepG2,> 40 µM
same,IC50,[3],> 40 µM
same,IC50,[2],20.2 µM
same,IC50,HT-29 [4],> 40 µM
same,IC50,[5],30.9 µM
same,IC50,SW480 [6],29.4 µM
CC(C)=CCC/C(C)=C/CC/C(C)=C/COc1cc(O)c2c(=O)cc(-c3ccccc3)oc2c1,IC50,HepG2,> 20 µM
same,IC50,[3],> 20 µM
same,IC50,HT-29 [4],> 20 µM
same,IC50,[5],> 20 µM
same,IC50,SW480 [6],> 20 µM

# From ChEMBL document CHEMBL3751778, “Synthesis and biological evaluation of novel 7-O-lipophilic substituted baicalein derivatives as potential anticancer agents” (Medchemcomm, 2015)
